Broadly, the IC50 is the concentration that inhibits the measured activity by half.

Structures are written as SMILES.

For this experiment, the target named is T1, human liver FBPase (Homo sapiens, UniProt P09467).
T1 construct: made in house; host or cells: E. coli
T1 sequence (P09467 2-338 limits assumed): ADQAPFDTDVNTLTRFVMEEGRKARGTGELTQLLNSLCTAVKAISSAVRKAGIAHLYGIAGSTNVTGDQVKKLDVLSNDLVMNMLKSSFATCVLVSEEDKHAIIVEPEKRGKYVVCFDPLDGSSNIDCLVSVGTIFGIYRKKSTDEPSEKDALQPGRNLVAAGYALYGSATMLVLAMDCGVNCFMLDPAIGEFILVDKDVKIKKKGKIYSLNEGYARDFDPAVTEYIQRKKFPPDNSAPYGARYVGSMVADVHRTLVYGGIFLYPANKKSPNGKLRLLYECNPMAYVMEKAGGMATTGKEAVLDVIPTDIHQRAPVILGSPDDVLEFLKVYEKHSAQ
Put plainly: FBPase assay: inorganic phosphate release (malachite green). In kind it is biochemical. The following applies: recombinant human liver FBPase, 50 μM fructose-1,6-bisphosphate, read-out at 620 nm. The gist of the method:
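Recombinant human liver FBPase (E. coli-expressed, >90% pure), 25 ng per reaction, with 50 μM fructose-1,6-bisphosphate in 50 mM HEPES-KOH pH 7.2, 2 mM MgCl2, 2 mM EDTA, 1 mM DTT, 1% DMSO. After 50 min at room temperature, released phosphate was complexed with malachite green/ammonium molybdate and read at 620 nm.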
In the case of `CCc1nc(NC(=O)NS(=O)(=O)c2cc(C)c(CCOC(C)=O)s2)sc1SC` [Example 83, 2-{5-[({[4-Ethyl-5-(methylthio)-1,3-thiazol-2-yl]carbamoyl}amino)sulfonyl]-3-methyl-2-thienyl}ethyl acetate], the IC50 was 0.134 µM.
Under `CCc1nc(NC(=O)NS(=O)(=O)c2cc(C)c(CCO)s2)sc1SC` [Example 84, N-{[4-Ethyl-5-(methylthio)-1,3-thiazol-2-yl]carbamoyl}-5-(2-hydroxyethyl)-4-methylthiophene-2-sulfonamide] stands 0.078 µM; under `CSc1sc(NC(=O)NS(=O)(=O)c2cc(C)c(CCOC(C)=O)s2)nc1C` [Example 85, 2-{3-Methyl-5-[({[4-methyl-5-(methylthio)-1,3-thiazol-2-yl]carbamoyl}amino)sulfonyl]-2-thienyl}ethyl acetate], 0.16 µM.
Consider `CSc1sc(NC(=O)NS(=O)(=O)c2cc(C)c(CCO)s2)nc1C` [Example 86, 5-(2-Hydroxyethyl)-4-methyl-N-{[4-methyl-5-(methylthio)-1,3-thiazol-2-yl]carbamoyl}thiophene-2-sulfonamide], for which the IC50 came to 0.071 µM.
For `COCc1nc(NC(=O)NS(=O)(=O)c2cc(C)c(CCOC(C)=O)s2)sc1SC` [Example 87, 2-{5-[({[4-(Methoxymethyl)-5-(methylthio)-1,3-thiazol-2-yl]carbamoyl}amino)sulfonyl]-3-methyl-2-thienyl}ethyl acetate] the value was 0.501 µM; for `COCc1nc(NC(=O)NS(=O)(=O)c2cc(C)c(CCO)s2)sc1SC` [Example 88, 5-(2-Hydroxyethyl)-N-{[4-(methoxymethyl)-5-(methylthio)-1,3-thiazol-2-yl]carbamoyl}-4-methylthiophene-2-sulfonamide], 0.369 µM; for `COCCc1sc(S(=O)(=O)NC(=O)Nc2nc3c(OC)cccc3s2)cc1C` [Example 89, N-[(4-Methoxy-1,3-benzothiazol-2-yl)carbamoyl]-5-(2-methoxyethyl)-4-methylthiophene-2-sulfonamide], 0.263 µM.
Take `COCCc1sc(S(=O)(=O)NC(=O)Nc2nc3ccc(OC)nc3s2)cc1C` [Example 90, 5-(2-Methoxyethyl)-N-[(5-methoxy[1,3]thiazolo[5,4-b]pyridin-2-yl)carbamoyl]-4-methylthiophene-2-sulfonamide]: the half-maximal inhibitory concentration (IC50) was found to be 0.842 µM.
Under `COCCc1sc(S(=O)(=O)NC(=O)Nc2nc3c(C)cccc3s2)cc1C` [Example 91, 5-(2-Methoxyethyl)-4-methyl-N-[(4-methyl-1,3-benzothiazol-2-yl)carbamoyl]thiophene-2-sulfonamide] stands 0.375 µM; under `COc1ccc(Cl)c2sc(NC(=O)NS(=O)(=O)c3cc(C)c(CCO)s3)nc12` [Example 92, N-[(7-Chloro-4-methoxy-1,3-benzothiazol-2-yl)carbamoyl]-5-(2-hydroxyethyl)-4-methylthiophene-2-sulfonamide], 0.038 µM.
As to `COc1cccc2sc(NC(=O)NS(=O)(=O)c3cc(C)c(CCO)s3)nc12` [Example 93, 5-(2-Hydroxyethyl)-N-[(4-methoxy-1,3-benzothiazol-2-yl)carbamoyl]-4-methylthiophene-2-sulfonamide], the IC50 came out at 0.141 µM.
For `Cc1cc(S(=O)(=O)NC(=O)Nc2nc3c(C)cccc3s2)sc1CCO` [Example 94, 5-(2-Hydroxyethyl)-4-methyl-N-[(4-methyl-1,3-benzothiazol-2-yl)carbamoyl]thiophene-2-sulfonamide] the value was 0.064 µM.
For `COc1sc(NC(=O)NS(=O)(=O)c2csc(C)c2)nc1C` [Example 95, N-[(5-Methoxy-4-methyl-1,3-thiazol-2-yl)carbamoyl]-5-methylthiophene-3-sulfonamide] the value was 0.594 µM.
On to `COCCc1sc(S(=O)(=O)NC(=O)Nc2nc(C)c(OC)s2)cc1C` [Example 96, 5-(2-Methoxyethyl)-N-[(5-methoxy-4-methyl-1,3-thiazol-2-yl)carbamoyl]-4-methylthiophene-2-sulfonamide], for which the IC50 was 0.637 µM.
For `COCCc1sc(S(=O)(=O)NC(=O)Nc2ncc(OC)s2)cc1C` [Example 97, 5-(2-Methoxyethyl)-N-[(5-methoxy-1,3-thiazol-2-yl)carbamoyl]-4-methylthiophene-2-sulfonamide] the value was 0.652 µM.
For `Cc1cc(S(=O)(=O)NC(=O)Nc2nc(C)c(SC(F)(F)F)s2)sc1CCO` [Example 98, 6-(2-Hydroxyethyl)-4-methyl-N-({4-methyl-5-[(trifluoromethyl)thio]-1,3-thiazol-2-yl}carbamoyl)thiophene-2-sulfonamide] the value was 0.177 µM.

Source of the values: US7973051B2 (Hoffman-La Roche Inc., priority 2007, dated 2011).
